Reference: patent US11111243B2, “Azaindole compounds as histone methyltransferase inhibitors” (GLOBAL BLOOD THERAPEUTICS, INC., priority 2017, dated 2021)
Structures can show the parent of a compound that is named as a salt.

Target: T1, G9a (Homo sapiens, UniProt Q96KQ7)
T1 sequence (Q96KQ7 1-1210): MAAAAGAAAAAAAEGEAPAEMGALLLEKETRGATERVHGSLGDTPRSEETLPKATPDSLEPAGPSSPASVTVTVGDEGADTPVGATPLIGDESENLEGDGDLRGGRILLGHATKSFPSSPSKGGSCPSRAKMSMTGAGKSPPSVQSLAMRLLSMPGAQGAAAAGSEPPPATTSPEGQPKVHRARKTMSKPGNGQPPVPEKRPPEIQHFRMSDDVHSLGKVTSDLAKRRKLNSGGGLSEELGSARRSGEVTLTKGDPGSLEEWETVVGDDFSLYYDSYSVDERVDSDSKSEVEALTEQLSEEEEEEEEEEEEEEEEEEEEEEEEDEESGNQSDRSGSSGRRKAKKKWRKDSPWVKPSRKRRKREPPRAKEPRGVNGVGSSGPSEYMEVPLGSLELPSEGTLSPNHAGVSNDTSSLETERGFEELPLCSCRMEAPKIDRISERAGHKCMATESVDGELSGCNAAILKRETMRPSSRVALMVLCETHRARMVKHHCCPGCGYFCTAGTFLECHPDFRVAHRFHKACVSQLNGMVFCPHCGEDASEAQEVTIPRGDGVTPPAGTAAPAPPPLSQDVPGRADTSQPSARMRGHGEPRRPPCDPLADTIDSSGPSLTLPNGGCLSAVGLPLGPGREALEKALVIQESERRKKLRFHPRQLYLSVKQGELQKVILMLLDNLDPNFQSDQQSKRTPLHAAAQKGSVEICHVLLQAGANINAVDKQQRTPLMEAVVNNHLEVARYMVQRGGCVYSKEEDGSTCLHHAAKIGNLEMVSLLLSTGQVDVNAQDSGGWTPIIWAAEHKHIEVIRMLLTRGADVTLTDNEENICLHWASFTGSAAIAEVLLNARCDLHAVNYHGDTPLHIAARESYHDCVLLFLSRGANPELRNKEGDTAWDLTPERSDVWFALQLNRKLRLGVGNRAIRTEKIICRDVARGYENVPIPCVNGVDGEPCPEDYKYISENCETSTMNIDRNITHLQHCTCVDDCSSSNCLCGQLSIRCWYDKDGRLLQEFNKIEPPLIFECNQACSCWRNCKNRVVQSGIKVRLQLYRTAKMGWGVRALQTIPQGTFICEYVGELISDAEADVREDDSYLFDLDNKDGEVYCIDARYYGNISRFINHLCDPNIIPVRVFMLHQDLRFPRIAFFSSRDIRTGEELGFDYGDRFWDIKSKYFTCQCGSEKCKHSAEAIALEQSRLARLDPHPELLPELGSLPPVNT
Test: G9a AlphaLISA enzymatic activity assay
Type: biochemical
Conditions: 0.15 nM G9a, 10 uM S-adenosyl-methionine, 100 nM biotinylated histone 3 peptide (1-21), 1 h room temperature
Description: The G9a AlphaLISA assay was used to detect the methyl modifications of a biotinylated histone H3 peptide by the compounds. These modifications are done by the histone methyl transferase activity of the G9a enzyme. The assay consists of reading a chemiluminescent signal at 615 nm; this signal is generated by a laser excitation at 680 nm that transfers a reactive singlet oxygen between the donor beads and acceptor beads. Donor beads are streptavidin conjugated and bind to the biotin on the peptide. Acceptor beads are conjugated with an antibody that recognizes the specific G9a methyl mark on the peptide. If there is a methyl mark on the peptide, the acceptor beads will bind to the peptide. Upon binding, the acceptor beads will be in close proximity (<200 nm) of the donor beads and when the donor beads are excited, the transfer of the oxygen can occur and a strong signal will be generated. If there is no methyl mark, the interaction between beads will not occur and signal will be at background levels.
For the assay, the following buffer was used to set up reactions: 50 mM Tris-HCl pH9, 50 mM NaCl, 0.01% Tween-20 and 1 mM DTT (added fresh prior to starting the reactions). The assay is set up by adding a final concentration of 0.15 nM G9a, 10 uM S-adenosyl-methionine and, 100 nM biotinylated histone 3 peptide (1-21). The reaction is incubated at room temperature for 1 h, and subsequently quenched by the addition of the acceptor beads (anti-H3k9me2 AlphaLISA acceptor beads, PerkinElmer #AL117) at a final concentration of 20 ug/mL. The acceptor beads are incubated for 1 h. After 1 h, the donor beads are added at a final concentration of 20 ug/mL (Alpha Streptavidin donor beads, PerkinElmer #6760002). Donor beads are incubated for 0.5 h. Both donor and acceptor beads are resuspended in AlphaLISA 5× Epigenetics Buffer 1 Kit (PerkinElmer #AL008) prior to addition to the reaction. All manipulations and incubations with the donor and acceptor beads are done in subdued light. Signal is detected in an EnVision plate reader in Alpha mode (See ACS Med Chem Lett. 2014 Jan. 2; 5(2):205-9)
Percent inhibition was calculated for each compound dilution and the concentration that produced 50% inhibition was calculated. This value is presented as the IC50.

First: CCN(C)CCCOc1cc2[nH]c3ccncc3c2cc1OC [Compound 45, ethyl[3-({8-methoxy-5H-pyrido[4,3-b]indol-7-yl}oxy)propyl]methylamine hydrochloride]
Second: CCN(C)CCCOc1cc2[nH]c3ccnc(C4CC4)c3c2cc1OC [Compound 46, [3-({1-cyclopropyl-8-methoxy-5H-pyrido[4,3-b]indol-7-yl}oxy)propyl](ethyl)methylamine hydrochloride]
The IC50 of the first is 2.3-fold higher: 56 nM for the first, 24 nM for the second. The second is the more potent here.

Compared with `COc1cc2c(cc1OCCCN(C)C)[nH]c1ccnc(C3CC3)c12` [Compound 47, [3-({1-cyclopropyl-8-methoxy-5H-pyrido[4,3-b]indol-7-yl}oxy)propyl]dimethylamine hydrochloride], `COc1cc2c(cc1OCCCN(C)C)[nH]c1ccnc(C3CCCC3)c12` [Compound 56, [3-({1-cyclopentyl-8-methoxy-5H-pyrido[4,3-b]indol-7-yl}oxy)propyl]dimethylamine hydrochloride] is 1.6-fold higher in IC50: 9.4 nM for the first, 15 nM for the second. The first is the more potent here.

First: COc1cc2c(cc1OCCCN(C)C)[nH]c1ccnc(C#CC(C)(C)O)c12 [Compound 48, 4-{7-[3-(dimethylamino)propoxy]-8-methoxy-5H-pyrido[4,3-b]indol-1-yl}-2-methylbut-3-yn-2-ol hydrochloride]
Second: COc1cc2c(cc1OCCCN(C)C)[nH]c1ccnc(C#CC(C)O)c12 (stereo not drawn) [Compound 50, 4-{7-[3-(dimethylamino)propoxy]-8-methoxy-5H-pyrido[4,3-b]indol-1-yl}but-3-yn-2-ol hydrochloride]
The IC50 of the first is 1.9-fold higher: 1300 nM for the first, 690 nM for the second.

Compared with `COc1cc2c(cc1OCCCN(C)C)[nH]c1ccnc(CCC(C)(C)O)c12` [Compound 49, 4-{7-[3-(dimethylamino)propoxy]-8-methoxy-5H-pyrido[4,3-b]indol-1-yl}-2-methylbutan-2-ol hydrochloride], `CCCc1nccc2[nH]c3cc(OCCCN(C)C)c(OC)cc3c12` [Compound 55, [3-({8-methoxy-1-propyl-5H-pyrido[4,3-b]indol-7-yl}oxy)propyl]dimethylamine hydrochloride] is 2.5-fold lower in IC50: 45 nM for the first, 18 nM for the second.

Compared with `COc1cc2c(cc1OCCCN(C)C)[nH]c1ccnc(C#CC3CC3)c12` [Compound 51, (3-{[1-(2-cyclopropylethynyl)-8-methoxy-5H-pyrido[4,3-b]indol-7-yl]oxy}propyl)dimethylamine hydrochloride], `C#Cc1nccc2[nH]c3cc(OCCCN(C)C)c(OC)cc3c12` [Compound 59, [3-({1-ethynyl-8-methoxy-5H-pyrido[4,3-b]indol-7-yl}oxy)propyl]dimethylamine hydrochloride] is 2.9-fold lower in IC50: 470 nM for the first, 160 nM for the second. The second is the more potent here.

Going from `COc1cc2c(cc1OCCCN(C)C)[nH]c1ccnc(CCC3CC3)c12` [Compound 52, 3-((1-(2-cyclopropylethyl)-8-methoxy-5H-pyrido[4,3-b]indol-7-yl)oxy)-N,N-dimethylpropan-1-amine hydrochloride] to `CCOCCc1nccc2[nH]c3cc(OCCCN(C)C)c(OC)cc3c12` [Compound 57, (3-{[1-(2-ethoxyethyl)-8-methoxy-5H-pyrido[4,3-b]indol-7-yl]oxy}propyl)dimethylamine hydrochloride], the IC50 falls from 100 nM to 61 nM (1.6-fold). The second is the more potent here.

`COc1cc2c(cc1OCCOCCN(C)C)[nH]c1ccnc(C3CC3)c12` [Compound 53, {2-[2-({1-cyclopropyl-8-methoxy-5H-pyrido[4,3-b]indol-7-yl}oxy)ethoxy]ethyl}dimethylamine hydrochloride] and `COc1cc2c(cc1OCCCN1CCCC1C)[nH]c1ccnc(C3CC3)c12` (stereo not drawn) [Compound 60, 1-[3-({1-cyclopropyl-8-methoxy-5H-pyrido[4,3-b]indol-7-yl}oxy)propyl]-2-methylpyrrolidine hydrochloride] are within 1.5-fold of each other in IC50: 62 nM for the first, 51 nM for the second.

Work on `COCCCc1nccc2[nH]c3cc(OCCCN(C)C)c(OC)cc3c12` [Compound 58, (3-{[8-methoxy-1-(3-methoxypropyl)-5H-pyrido[4,3-b]indol-7-yl]oxy}propyl)dimethylamine hydrochloride] yielded an IC50 of 86 nM.
